These results are taken from BindingDB's records for doi:10.1021/jm500853v (University of Hawaii At Hilo, 2014).

The term IC50 denotes the midpoint of a concentration-inhibition curve.

The target in the assay is DNA gyrase A/A/B/B tetramer (Escherichia coli (strain K12), UniProt P0AES4+P0AES6). As to the kind of experiment: Inhibition of Escherichia coli DNA gyrase assessed as supercoiled plasmid DNA formation after 30 mins by electrophoretic analysis.
Turning to `C=CCOc1ccccc1/C=C/C(=O)c1ccc(O)cc1O`, the IC50 was determined as 500 µM.
Turning to `CC1(C)C2CC=C(/C=C/C(=O)c3ccc(O)cc3O)C1C2` (stereo not drawn), the IC50 was 250 µM.
Regarding `CC[C@H](C)C(=O)c1c(O)cc(O)cc1OC/C=C(\C)CCC=C(C)C` [Olympicin A], the 50% inhibitory concentration (IC50) amounted to 500 µM.
